This note sets out measurements from patent publication US4450269A, “Mono-5-substituted-3-chloro-4H-1,2,6-thiadiazin-4-one antifungal agents” (FMC Corporation, priority 1980, dated 1984).

As usually defined, the inhibition is the percentage by which the read-out fell short of the control.

The subject of the assay is Helminthosporium oryzae. Description: Mycelial growth test. The settings on record: for Percent Fungus Growth Inhibition: HO, 72 hours; for inhibition at 5 ppm / inhibition at 10 ppm / inhibition at 20 ppm / inhibition at 40 ppm: Bipolaris oryzae, 72 h; for inhibition at 5 ppm: read-out: Percent Fungus Growth Inhibition, HO, 5 ppm, 72 hours; for inhibition at 10 ppm: read-out: Percent Fungus Growth Inhibition, HO, 10 ppm, 72 hours; for inhibition at 20 ppm: read-out: Percent Fungus Growth Inhibition, HO, 20 ppm, 72 hours; for inhibition at 40 ppm: read-out: Percent Fungus Growth Inhibition, HO, 40 ppm, 72 hours.

Where a name gives a salt, the structure may show the parent alone.

Take “3-chloro-5-(bromophenoxy)-4H-1,2,6-thiadiazin-4-one [Compound 33]”: the “Percent Fungus Growth Inhibition” value was determined as 83% (5 ppm), 91% (10 ppm), 100% (20 ppm) and 100% (40 ppm).
Turning to “3-chloro-5-[methylaminocarbonyloxy)phenoxyl]-4H-1,2,6-thiadiazin-4-one [Compound 36]”, the “Percent Fungus Growth Inhibition” value is, setting by setting: (5 ppm) 78%; (10 ppm) 78%; (20 ppm) 89%; (40 ppm) 100%.
Regarding `O=c1c(Cl)nsnc1Oc1ccccc1` [Compound 2, 3-chloro-5-phenoxy-4H--1,2,6-thiadiazin-4-one], the inhibition at 5 ppm is 55%, the inhibition at 10 ppm is 64%, the inhibition at 20 ppm turned out to be 100% and the inhibition at 40 ppm came out at 100%.
Take `Cc1ccc(Oc2nsnc(Cl)c2=O)cc1` [Compound 3, 3-chloro-5-(4-methylphenoxy)-4H--1,2,6-thiadiazin-4-one]: the inhibition at 5 ppm is 55%, the inhibition at 10 ppm amounted to 64%, the inhibition at 20 ppm turned out to be 100% and the inhibition at 40 ppm was determined as 100%.
Take `CC(C)(C)c1ccc(Oc2nsnc(Cl)c2=O)cc1` [Compound 4, 3-chloro-5-(4-tert-butylphnoxy)-4H--1,2,6-thiadiazin-4-one]: the inhibition at 5 ppm stood at 0%, the inhibition at 10 ppm worked out at 0%, the inhibition at 20 ppm came to 24% and the inhibition at 40 ppm is 33%.
Regarding `COc1ccc(Oc2nsnc(Cl)c2=O)cc1` [Compound 5, 3-chloro-5-(4-methoxyphenoxy)4H--1,2,6-thiadiazin-4-one], the inhibition at 5 ppm worked out at 50%, the inhibition at 10 ppm was determined as 64%, the inhibition at 20 ppm was found to be 73% and the inhibition at 40 ppm was 100%.
The matching figures for `CCCCOc1ccc(Oc2nsnc(Cl)c2=O)cc1` [Compound 6, 3-chloro-5-(4-n-butoxyphenoxy)-4H--1,2,6-thiadiazin-4-one]: 0%, 0%, 0% and 48%.
Taken in the same sequence, the figures for `CCOC(=O)c1ccc(Oc2nsnc(Cl)c2=O)cc1` [Compound 7, 3-chloro-5-(4-ethoxycarbonylphenoxy)-4H--1,2,6-thiadiazin-4-one] were 48%, 43%, 100% and 100%.
Taken in the same sequence, the figures for `CC(=O)Nc1ccc(Oc2nsnc(Cl)c2=O)cc1` [Compound 8, 5-(4-acetylaminophenoxy)-3-chloro-4H--1,2,6-thiadiazin-4-one] were 24%, 33%, 0% and 81%.
Turning to `O=c1c(Cl)nsnc1Oc1ccc([N+](=O)[O-])cc1` [Compound 9, 3-chloro-5-(4-nitrophenoxy)-4H--1,2,6-thiadiazin-4-one], the inhibition at 5 ppm was 50%, the inhibition at 10 ppm is 82%, the inhibition at 20 ppm turned out to be 86% and the inhibition at 40 ppm came to 100%.
As for `N#Cc1ccc(Oc2nsnc(Cl)c2=O)cc1` [Compound 10, 3-chloro-5-(4-cyanophenoxy)-4H--1,2,6-thiadiazin-4-one], the inhibition at 5 ppm amounted to 57%, the inhibition at 10 ppm was found to be 52%, the inhibition at 20 ppm turned out to be 100% and the inhibition at 40 ppm turned out to be 100%.
On to `O=c1c(Cl)nsnc1Oc1ccc(F)cc1` [Compound 11, 3-chloro-5-(4-fluorophenoxy)-4H--1,2,6-thiadiazin-4-one], for which the inhibition at 5 ppm was 62%, the inhibition at 10 ppm came to 100%, the inhibition at 20 ppm is 100% and the inhibition at 40 ppm came out at 100%.
Consider `O=c1c(Cl)nsnc1Oc1ccc(Cl)cc1` [Compound 12, 3-chloro-5-(4-chlorophenoxy)-4H--1,2,6-thiadiazin-4-one], for which the inhibition at 5 ppm turned out to be 59%, the inhibition at 10 ppm was 59%, the inhibition at 20 ppm is 100% and the inhibition at 40 ppm came out at 100%.
With `O=c1c(Cl)nsnc1Oc1cccc(Cl)c1` [Compound 13, 3-chloro-5-(3-chlorophenoxy)-4H--1,2,6-thiadiazin-4-one], the inhibition at 5 ppm turned out to be 71%, the inhibition at 10 ppm stood at 86%, the inhibition at 20 ppm worked out at 76% and the inhibition at 40 ppm turned out to be 81%.
Taken in the same sequence, the figures for `O=c1c(Cl)nsnc1Oc1ccccc1Cl` [Compound 14, 3-chloro-5-(2-chlorophenoxy)-4H--1,2,6-thiadiazin-4-one] were 71%, 71%, 100% and 100%.
Consider `O=c1c(Cl)nsnc1Oc1ccc(Br)cc1` [Compound 15, 3-chloro-5-(4-bromophenoxy)-4H--1,2,6-thiadiazin-4-one], for which the inhibition at 5 ppm came to 57%, the inhibition at 10 ppm was 90%, the inhibition at 20 ppm was 95% and the inhibition at 40 ppm was 100%.
In the case of `O=c1c(Cl)nsnc1Oc1ccc(Cl)c(Cl)c1` [Compound 16, 3-chloro-5-(3,4-dichlorophenoxy)-4H--1,2,6-thiadiazin-4-one], the inhibition at 5 ppm came to 64%, the inhibition at 10 ppm worked out at 55%, the inhibition at 20 ppm was 55% and the inhibition at 40 ppm was determined as 82%.
Turning to `O=c1c(Cl)nsnc1Oc1ccc(Cl)cc1Cl` [Compound 17, 3-chloro-5-(2,4-dichlorophenoxy)-4H--1,2,6-thiadiazin-4-one], the inhibition at 5 ppm is 100%, the inhibition at 10 ppm amounted to 100%, the inhibition at 20 ppm came to 100% and the inhibition at 40 ppm stood at 100%.
Take `O=c1c(Cl)nsnc1Oc1c(Cl)cccc1Cl` [Compound 18, 3-chloro-5-(2,6-dichlorophenoxy)-4H--1,2,6-thiadiazin-4-one]: the inhibition at 5 ppm is 86%, the inhibition at 10 ppm was 86%, the inhibition at 20 ppm worked out at 100% and the inhibition at 40 ppm worked out at 100%.
For `O=c1c(Cl)nsnc1Oc1cccc(Cl)c1Cl` [Compound 19, 3-chloro-5-(2,3-dichlorophenoxy)-4H--1,2,6-thiadiazin-4-one], the inhibition at 5 ppm is 100%, the inhibition at 10 ppm was 90%, the inhibition at 20 ppm worked out at 100% and the inhibition at 40 ppm is 100%.
Turning to `O=c1c(Cl)nsnc1Oc1cc(Cl)cc(Cl)c1` [Compound 20, 3-chloro-5-(3,5-dichlorophenoxy)-4H--1,2,6-thiadiazin-4-one], the inhibition at 5 ppm is 100%, the inhibition at 10 ppm is 100%, the inhibition at 20 ppm was 100% and the inhibition at 40 ppm was determined as 100%.
Turning to `Cc1cccc(Oc2nsnc(Cl)c2=O)c1` [Compound 21, 3-chloro-5-(3-methylphenoxy)-4H--1,2,6-thiadiazin-4-one], the inhibition at 5 ppm turned out to be 64%, the inhibition at 10 ppm is 86%, the inhibition at 20 ppm amounted to 100% and the inhibition at 40 ppm came out at 100%.
In the case of `Cc1ccccc1Oc1nsnc(Cl)c1=O` [Compound 22, 3-chloro-5-(2-methylphenoxy)-4H--1,2,6-thiadiazin-4-one], the inhibition at 5 ppm was 100%, the inhibition at 10 ppm amounted to 100%, the inhibition at 20 ppm came to 100% and the inhibition at 40 ppm was determined as 100%.
Turning to `Cc1ccc(Oc2nsnc(Cl)c2=O)c(C)c1` [Compound 23, 3-chloro-5-(2,4-dimethylphenoxy)-4H--1,2,6-thiadiazin-4-one], the inhibition at 5 ppm was 100%, the inhibition at 10 ppm worked out at 100%, the inhibition at 20 ppm was found to be 100% and the inhibition at 40 ppm turned out to be 100%.
With `Cc1cccc(C)c1Oc1nsnc(Cl)c1=O` [Compound 24, 3-chloro-5-(2,6-dimethylphenoxy)-4H--1,2,6-thiadiazin-4-one], the inhibition at 5 ppm was found to be 86%, the inhibition at 10 ppm worked out at 100%, the inhibition at 20 ppm came to 100% and the inhibition at 40 ppm worked out at 100%.
Turning to `Cc1cc(C)cc(Oc2nsnc(Cl)c2=O)c1` [Compound 25, 3-chloro-5-(3,5-dimethylphenoxy)-4H--1,2,6-thiadiazin-4-one], the inhibition at 5 ppm worked out at 79%, the inhibition at 10 ppm came out at 100%, the inhibition at 20 ppm was 100% and the inhibition at 40 ppm was determined as 100%.
`Nc1ccc(Oc2nsnc(Cl)c2=O)cc1` [Compound 26, 5-(4-aminophenoxy)-3-chloro-4H--1,2,6-thiadiazin-4-one]: the inhibition at 20 ppm worked out at 57%. Moreover, the “Percent Fungus Growth Inhibition” value (5 ppm) is 43%. The “Percent Fungus Growth Inhibition” value (40 ppm) worked out at 100%.
Turning to `Nc1ccc(Oc2nsnc(Cl)c2=O)cc1` [Compound 27, 5-(4-aminophenoxy)-3-chloro-4H--1,2,6-thiadiazine-4-one hydrochloride], the “Percent Fungus Growth Inhibition” value worked out at 0% (5 ppm, hydrochloride); 21% (10 ppm, hydrochloride); 43% (20 ppm, hydrochloride); 57% (40 ppm, hydrochloride).
Consider `CNC(=O)Nc1ccc(Oc2nsnc(Cl)c2=O)cc1` [Compound 28, 3-chloro-5-[4-(3-methylureido)-phenoxy]-4H--1,2,6-thiadiazin-4-one], for which the inhibition at 5 ppm is 29%, the inhibition at 10 ppm came out at 29%, the inhibition at 20 ppm turned out to be 21% and the inhibition at 40 ppm stood at 64%.
With `O=C(Nc1ccccc1)Nc1ccc(Oc2nsnc(Cl)c2=O)cc1` [Compound 29, 3-chloro-5-[4-(3-phenylureido)-phenoxy]-4H--1,2,6-thiadiazin-4-one], the inhibition at 5 ppm is 0%, the inhibition at 10 ppm was determined as 0%, the inhibition at 20 ppm is 14% and the inhibition at 40 ppm was found to be 0%.
Regarding `O=c1c(Cl)nsnc1Oc1c(Cl)cc(Cl)cc1Cl` [Compound 30, 3-chloro-5-(2,4,6-trichlorophenoxy)-4H--1,2,6-thiadiazin-4-one], the inhibition at 5 ppm stood at 59%, the inhibition at 10 ppm is 100%, the inhibition at 20 ppm was determined as 100% and the inhibition at 40 ppm came to 100%.
`O=c1c(Cl)nsnc1Oc1c(Cl)c(Cl)c(Cl)c(Cl)c1Cl` [Compound 31, 3-chloro-5-(pentachlorophenoxy)-4H--1,2,6-thiadiazine-4-one]: the inhibition at 5 ppm stood at 57%, the inhibition at 10 ppm came out at 86%, the inhibition at 20 ppm was found to be 57% and the inhibition at 40 ppm was 100%.
With `O=c1c(Cl)nsnc1Oc1cccc2ccccc12` [Compound 32, 3-chloro-5(1-naphthoxy)-4H-1,2,6-thiadiazin-4-one], the inhibition at 5 ppm was determined as 100%, the inhibition at 10 ppm stood at 63%, the inhibition at 20 ppm amounted to 100% and the inhibition at 40 ppm is 100%.
